Source: ChEMBL document CHEMBL2321873, “1-(4-Phenylpiperazin-1-yl)-2-(1H-pyrazol-1-yl)ethanones as novel CCR1 antagonists” (Bioorg Med Chem Lett, 2013)
Active and inactive are the calls of the source. No cut-off for these calls is given here.

What was measured:
[1] = molecular target: T1, C-X-C chemokine receptor type 1 (Homo sapiens) (UniProt P25024); assay: Antagonist activity at CXCR1 (unknown origin) assessed as inhibition of calcium flux at 10 uM; assay type: functional
T1 sequence (whole entry): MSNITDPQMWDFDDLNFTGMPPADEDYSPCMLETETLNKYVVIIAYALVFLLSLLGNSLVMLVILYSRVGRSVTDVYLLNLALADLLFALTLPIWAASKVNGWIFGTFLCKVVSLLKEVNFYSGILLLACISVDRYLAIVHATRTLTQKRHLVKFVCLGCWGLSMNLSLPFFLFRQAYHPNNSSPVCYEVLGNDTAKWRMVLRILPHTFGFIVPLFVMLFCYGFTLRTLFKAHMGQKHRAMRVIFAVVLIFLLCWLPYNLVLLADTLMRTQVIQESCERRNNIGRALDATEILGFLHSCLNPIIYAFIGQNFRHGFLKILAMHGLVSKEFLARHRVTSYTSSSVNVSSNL

[2] = molecular target: T2, C-X-C chemokine receptor type 3 (Homo sapiens) (UniProt P49682); assay: Antagonist activity at CXCR3 (unknown origin) assessed as inhibition of calcium flux at 10 uM; assay type: functional
T2 sequence (whole entry): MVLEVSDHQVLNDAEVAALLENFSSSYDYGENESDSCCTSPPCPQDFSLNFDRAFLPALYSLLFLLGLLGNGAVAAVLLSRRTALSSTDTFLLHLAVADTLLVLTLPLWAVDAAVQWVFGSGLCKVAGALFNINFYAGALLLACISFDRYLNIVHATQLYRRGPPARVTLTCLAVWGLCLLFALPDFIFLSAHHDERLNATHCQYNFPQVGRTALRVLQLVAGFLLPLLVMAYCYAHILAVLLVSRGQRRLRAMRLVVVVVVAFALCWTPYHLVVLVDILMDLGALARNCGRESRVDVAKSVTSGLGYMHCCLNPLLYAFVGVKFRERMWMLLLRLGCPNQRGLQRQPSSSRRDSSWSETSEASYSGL

Rattus norvegicus = assay: Toxicity in Sprague-Dawley rat assessed as effect on blood chemistry at 70 to 360 mg/kg, po after 7 days; assay type: organism-based; design: dose 70-360 mg/kg, route oral; settings: in vivo, 168 h
[3] = molecular target: T3, C-C chemokine receptor-like 2 (Homo sapiens) (UniProt O00421); assay: Antagonist activity at CCR11 (unknown origin) assessed as inhibition of chemotaxis at 10 uM
T3 sequence (whole entry): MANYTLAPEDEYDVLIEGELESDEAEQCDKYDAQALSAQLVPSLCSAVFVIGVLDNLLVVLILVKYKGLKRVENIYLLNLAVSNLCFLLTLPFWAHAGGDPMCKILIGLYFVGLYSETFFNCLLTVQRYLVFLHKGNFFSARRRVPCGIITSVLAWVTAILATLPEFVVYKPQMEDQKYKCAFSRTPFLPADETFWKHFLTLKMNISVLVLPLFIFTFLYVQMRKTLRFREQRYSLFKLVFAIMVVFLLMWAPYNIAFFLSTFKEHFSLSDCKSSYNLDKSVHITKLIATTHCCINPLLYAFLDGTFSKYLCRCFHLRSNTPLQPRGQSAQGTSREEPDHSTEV

[4] = molecular target: T4, C-C chemokine receptor type 7 (Homo sapiens) (UniProt P32248); assay: Antagonist activity at CCR7 (unknown origin) assessed as inhibition of chemotaxis at 10 uM
T4 sequence (whole entry): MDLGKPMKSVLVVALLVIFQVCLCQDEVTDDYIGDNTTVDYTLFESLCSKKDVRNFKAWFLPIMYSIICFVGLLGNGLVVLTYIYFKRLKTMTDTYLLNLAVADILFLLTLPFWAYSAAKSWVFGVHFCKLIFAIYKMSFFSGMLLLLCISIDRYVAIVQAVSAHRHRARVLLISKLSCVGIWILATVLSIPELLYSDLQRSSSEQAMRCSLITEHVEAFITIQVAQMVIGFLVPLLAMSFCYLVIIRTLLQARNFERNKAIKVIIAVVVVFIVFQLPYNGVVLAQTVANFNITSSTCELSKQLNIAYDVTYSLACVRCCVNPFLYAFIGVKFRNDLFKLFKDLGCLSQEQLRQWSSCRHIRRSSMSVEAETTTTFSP

[5] = molecular target: T5, C-C chemokine receptor type 9 (Homo sapiens) (UniProt P51686); assay: Antagonist activity at CCR9 (unknown origin) assessed as inhibition of calcium flux at 10 uM; assay type: functional
T5 sequence (whole entry): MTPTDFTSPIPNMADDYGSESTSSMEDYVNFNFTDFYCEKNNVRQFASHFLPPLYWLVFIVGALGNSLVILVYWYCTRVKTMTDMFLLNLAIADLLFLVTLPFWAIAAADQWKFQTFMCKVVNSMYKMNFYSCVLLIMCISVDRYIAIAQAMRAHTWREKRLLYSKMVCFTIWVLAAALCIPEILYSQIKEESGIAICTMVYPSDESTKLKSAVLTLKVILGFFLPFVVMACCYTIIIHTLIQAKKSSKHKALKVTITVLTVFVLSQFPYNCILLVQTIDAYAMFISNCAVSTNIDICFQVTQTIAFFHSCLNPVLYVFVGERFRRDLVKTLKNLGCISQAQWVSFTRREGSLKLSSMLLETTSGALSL

[6] = molecular target: T6, C-C chemokine receptor type 3 (Homo sapiens) (UniProt P51677); assay: Binding affinity to CCR3 (unknown origin) at 10 uM by radioligand displacement assay
T6 sequence (whole entry): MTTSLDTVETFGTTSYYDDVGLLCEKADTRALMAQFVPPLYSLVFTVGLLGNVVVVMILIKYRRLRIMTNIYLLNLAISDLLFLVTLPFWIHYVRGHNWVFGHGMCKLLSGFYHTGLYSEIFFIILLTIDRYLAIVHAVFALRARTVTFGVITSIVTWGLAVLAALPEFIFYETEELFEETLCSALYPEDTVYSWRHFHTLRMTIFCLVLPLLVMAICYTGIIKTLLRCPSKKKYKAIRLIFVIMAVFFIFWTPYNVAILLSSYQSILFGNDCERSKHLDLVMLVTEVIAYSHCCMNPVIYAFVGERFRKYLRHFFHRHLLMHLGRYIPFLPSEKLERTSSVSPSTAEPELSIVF

[7] = molecular target: T7, C-C chemokine receptor type 6 (Homo sapiens) (UniProt P51684); assay: Antagonist activity at CCR6 (unknown origin) assessed as inhibition of calcium flux at 10 uM; assay type: functional
T7 sequence (whole entry): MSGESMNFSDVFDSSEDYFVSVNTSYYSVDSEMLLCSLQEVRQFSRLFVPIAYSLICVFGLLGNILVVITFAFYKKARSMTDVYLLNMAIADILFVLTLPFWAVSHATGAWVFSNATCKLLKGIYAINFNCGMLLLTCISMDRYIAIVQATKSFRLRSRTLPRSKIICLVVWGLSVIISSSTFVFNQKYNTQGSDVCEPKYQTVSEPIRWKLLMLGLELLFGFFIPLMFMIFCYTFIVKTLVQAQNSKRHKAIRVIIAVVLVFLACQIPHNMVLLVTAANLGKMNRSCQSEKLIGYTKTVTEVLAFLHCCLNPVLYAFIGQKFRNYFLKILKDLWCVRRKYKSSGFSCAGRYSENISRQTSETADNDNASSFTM

[8] = molecular target: T2, C-X-C chemokine receptor type 3 (Homo sapiens); assay: Antagonist activity at CXCR3 (unknown origin) assessed as inhibition of chemotaxis at 10 uM
[9] = molecular target: T5, C-C chemokine receptor type 9 (Homo sapiens); assay: Antagonist activity at CCR9 (unknown origin) assessed as inhibition of chemotaxis at 10 uM

Q: Which results are given for `COc1cc(N2CCN(C(=O)Cn3nc(C(F)(F)F)c(Cl)c3C)CC2)ccc1Cl`?
A: inhibition [1]: inactive; inhibition [2]: inactive; Activity (Rattus norvegicus): Non-toxic; inhibition [3]: inactive; inhibition [4]: inactive; inhibition [5]: inactive; Activity [6]: inactive; inhibition [7]: inactive; inhibition [8]: inactive; inhibition [9]: inactive
